Earlier results on one substance are cited in PMC7144264 (Journal of Enzyme Inhibition and Medicinal Chemistry, 2020).

For the data set, the system named is COX. More on the design: method as in PMID 28535469. The settings on record: cited from earlier work.

For “N-(3-chloropyridin-2-yl)−2–(4-((2-(trifluoromethyl)pyridin-4-yl)amino)phenyl)propenamide [TPA-14]”, the COX-inhibitory potency result is “lacked COX-inhibitory potency”.
